The values below come from US6403805B1 (Janssen Pharmaceutica N.V., priority 1995, dated 2002).

One may read the IC50 as the point on the concentration scale where inhibition reaches its midpoint.

The target of experiment [1] is T1, recombinant human MNL phosphodiesterase type IV B (Homo sapiens, UniProt Q07343).
T1 construct: made in house; host or cells: insect cells infected with recombinant baculovirus
Briefly: Inhibition of recombinant human mononuclear lymphocyte (MNL) phosphodiesterase type IV B produced in insect cells with a baculovirus vector. As to conditions: recombinant human MNL PDE IV B; 0.8 μM 3H-cAMP, pH 8, 37° C.; calculated graphically. The format is biochemical. How it is done:
Inhibition of recombinant human mononuclear lymphoctye (MNL) phosphodiesterase type IV B produced in insect cells with a baculovirus vector
The alleviating and/or curing effect of the instant compounds on allergic and atopic diseases was assessed by an in vitro assay system to detect an inhibiting effect on the recombinant human MNL phosphodiesterase type IV B.
Seventy-two hours after infection with recombinant baculovirus, the insect cells were harvested and pelleted at 500 g for 5 minutes. The cells were lysed in 10 ml lysis-buffer consisting of 20 mM Tris, 10 mM EGTA, 2 mM Na2EDTA, 1% Triton-X-100, 1 mM Na3VO4, 10 mM NaF, 2 μg/ml of leupeptine, pepstatine and aprotinine, 0.3 μg/ml benzamidine and 100 μg/ml TPCK pH 7.5. After 5 minutes on ice, solubilized cells were centrifuged at 4000 rpm for 15 minutes at 4° C. The resulting supernatant was filtered through a 0.45 μm filter (Millipore) and brought to TBS buffer (50 mM Tris, 150 mM NaCl pH 7.4).
After washing the column with equilibration buffer, PDE IV was eluted in 1.5 ml fractions containing 37.5 μl 1M Tris pH 8. The fractions were dialyzed overnight against 20 mM Tris, 2 mM Na2EDTA and 400 mM NaCl pH 7.5 and tested for PDE IV activity. Identification was done on SDS PAGE and Western Blot (anti-FLAG-M2). Active fractions were pooled, brought to 10% glycerol and stored at −70° C.
The incubation mixture (pH 8) (200 μl) contained 20 mM Tris, 10 mM magnesium sulphate, 0.8 μM ^3H-cAMP (310 mCi/mmole) and the phosphodiesterase type IV, the amount depending on the enzymatic activity.
When the effect of different compounds on phosphodiesterase activity was tested, the medium without cAMP was incubated with the compound(s) or its carrier (DMSO-1% final concentration) for 5 min. The enzymatic reaction was started by addition of ^3H-cAMP and stopped 10 min later after transferring the microtiter-plate in a waterbath at 100° C. for 5 min. After cooling to room temperature, alkaline phosphatase (0.25 μg/ml) was added and the mixture was incubated at 37° C. for 20 min. 100 μl of the mixture was subsequently applied to a GF-B filter-microtiter-plate (Millipore) filled with 300 μl DEAE-Sephadex-A25 suspension. The plate was washed 3 times with 75 μl 20 mM Tris pH 7.5 and the filtrates were collected for counting in the Packard Top Count scintillation counter.
The inhibiting effect of the present compounds on recombinant human MNL phosphodiesterase PDE IV B was measured at different concentrations of the instant compounds. The IC50 values (expressed in M) were calculated graphically from the thus obtained inhibition values.

Experiment [2] relates to dextran-induced oedema formation in mouse ear. Briefly: Dextran-induced oedema formation in mouse ear. It counts as in vivo, Male Swiss mice. As to conditions: vs background blueing value; for inhibition in vivo at 5 mg/kg / inhibition in vivo at 2.5 mg/kg: Mus musculus, 1 h, read-out: % inhibition of the extravasation of the dye. How it is done:
Dextran-induced oedema formation in mouse ear Systemic injection of dextran T500 in normal, non-sensitized mice elicits increased vascular permeability, leading to extravasation and oedema of the extremities. When dextran is injected together with a blue dye, blueing of the ears is the most prominent feature of oedematous response. Male Swiss mice weighting 24-26 g were orally pretreated with the test compound dissolved in PEG-200 at different concentrations or solvent. One hour later, the mice were given an intravenous injection with an isotonic saline solution containing 12 mg/ml dextran T500 and 2.6 mg/ml pontamine sky-blue dye, in a volume of 0.1 ml per 10 g body weight. One hour and forty-five minutes later, the animals are sacrificed by ether and their ears removed. Extraction and quantification of the extravasated dye is done as described by Van Wauwe and Goossens (Drug Dev. Res. 1986, 8, 213-218). The extravasation of the dye is characterized by the blueing value which is defined as the concentration of the extracted dye in both ears. The background blueing value was determined once as the mean blueing value obtained by injecting a group of mice with a saline solution containing only dextran T500 and the blue dye. Table 6 lists the percentage inhibition of the extravasation of the dye when compared with the background extravasation of the dye when the test compound was administered at a dose of 5 mg/kg. The test compounds indicated by an asterisk (*) were tested at a dose of 2.5 mg/kg

[3] abbreviates: oral dose of 5 mg/kg in PEG-200, one hour before i.v. dextran T500/pontamine sky-blue.
The mark [4] stands for this setting: asterisk (*): oral dose of 2.5 mg/kg in PEG-200, one hour before i.v. dextran T500/pontamine sky-blue.
Setting [5] is: oral dose of 5 mg/kg in PEG-200, one hour before i.v. dextran T500/pontamine sky-blue, 5 mg/kg.

Bounds are passed on as bounds.

T1 sequence (Q07343 whole entry): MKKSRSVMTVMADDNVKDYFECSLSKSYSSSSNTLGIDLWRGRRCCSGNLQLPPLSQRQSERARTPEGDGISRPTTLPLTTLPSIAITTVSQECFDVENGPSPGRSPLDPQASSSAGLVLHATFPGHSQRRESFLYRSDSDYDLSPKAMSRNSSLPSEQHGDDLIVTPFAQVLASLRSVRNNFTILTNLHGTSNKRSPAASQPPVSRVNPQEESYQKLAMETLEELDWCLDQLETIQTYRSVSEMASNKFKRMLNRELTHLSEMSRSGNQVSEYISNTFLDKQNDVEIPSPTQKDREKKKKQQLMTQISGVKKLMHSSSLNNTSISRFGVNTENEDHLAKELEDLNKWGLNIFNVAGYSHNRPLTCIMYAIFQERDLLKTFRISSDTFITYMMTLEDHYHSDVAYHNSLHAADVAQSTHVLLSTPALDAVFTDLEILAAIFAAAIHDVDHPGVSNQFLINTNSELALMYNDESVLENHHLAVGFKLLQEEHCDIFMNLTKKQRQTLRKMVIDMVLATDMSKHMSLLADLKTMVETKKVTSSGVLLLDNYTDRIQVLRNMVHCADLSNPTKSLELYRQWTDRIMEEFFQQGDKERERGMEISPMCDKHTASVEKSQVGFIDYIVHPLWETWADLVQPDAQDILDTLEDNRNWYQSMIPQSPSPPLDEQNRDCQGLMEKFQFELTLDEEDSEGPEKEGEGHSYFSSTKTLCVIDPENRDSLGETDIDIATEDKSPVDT

Turning to “1,3-dihydro-1-[2-(3,4-dimethoxyphenyl)ethyl]-2-methyl-3H-imidazol-2-one [Compound 86]”, the half-inhibitory concentration (IC50) in experiment [1] is 1800 nM. For the same compound, the “% inhibition of the extravasation of the dye” value (“% inhibition” for short) in experiment [2] (setting [3]) came to 39.0%.
Regarding `COc1ccc(C(C)Cn2cc[nH]c2=O)cc1OC1CCCC1` (racemic) [Compound 1, (±)-1-[2-[3-(cyclopentyloxy)-4-methoxyphenyl]propyl]-1,3-dihydro-2H-imidazol-2-one], in experiment [1], the IC50 was 4.8 nM. Also, the inhibition in vivo at 5 mg/kg in experiment [2] (setting [3]) amounted to 83.1%.
For the compound `COc1ccc(C(O)(Cn2cc[nH]c2=O)c2ccccc2)cc1OC1CCCC1` (racemic) [Compound 8, (±)-1-[2-[3-(cyclopentyloxy)-4-methoxyphenyl]-2-hydroxy-2-phenylethyl]-1,3-dihydro-2H-imidazol-2-one], in experiment [1], the IC50 was 1900 nM. Further, in experiment [2] (setting [3]), the inhibition in vivo at 5 mg/kg was found to be 12.4%.
Consider `CCOC(=O)Cn1ccn(C(C)c2ccc(OC)c(OC3CCCC3)c2)c1=O` (racemic) [Compound 9, (±)-ethyl 3-[1-[3-(cyclopentyloxy)-4-methoxy-phenyl]ethyl]-2,3-dihydro-2-oxo-1H-imidazole-1-acetate], for which the inhibition in vivo at 5 mg/kg in experiment [2] (setting [3]) worked out at 10.2%.
Consider `COc1ccc(C(C)Cn2cc[nH]c2=O)cc1OCC1CC1` (racemic) [Compound 10, (±)-1-[2-[3-(cyclopropylmethoxy)-4-methoxyphenyl]propyl]-1,3-dihydro-2H-imidazol-2-one], for which the half-inhibitory concentration (IC50) in experiment [1] is below 10 nM. Also, the inhibition in vivo at 5 mg/kg in experiment [2] (setting [3]) is 91.9%.
`COc1ccc(C(N)CN2CCN(Cc3ccccc3)C2=O)cc1OC` (racemic) [Compound 11, (±)-1-[2-amino-2-(3,4-dimethoxyphenyl)ethyl]-3-(phenylmethyl)-2-imidazolidinone]: the inhibition in vivo at 5 mg/kg in experiment [2] (setting [3]) amounted to 26.8%.
Consider `COc1ccc(C(O)CN2CCNC2=O)cc1OC` (racemic) [Compound 13, ±)-1-[2-(3,4-dimethoxyphenyl)-2-hydroxy-ethyl]-2-imidazolidinone], for which the “% inhibition” value in experiment [2] (setting [3]) turned out to be 36.3%.
Consider `COc1ccc(C(CN2CCNC2=O)NC(C)=O)cc1OC` (racemic) [Compound 16, (±)-N-[1-(3,4-dimethoxyphenyl)[2-(2-oxo-1-imidazolidinyl)-ethyl]acetamide], for which the “% inhibition” value in experiment [2] (setting [3]) is on record as 10.8%.
Take `COc1ccc(C(O)Cn2cc[nH]c2=O)cc1O` (racemic) [Compound 19, (±)-1,3-dihydro-1-[2-hydroxy-2-(3-hydroxy-4-methoxyphenyl)ethyl]-2H-imidazol-2-one]: in experiment [2] (setting [4]), the inhibition in vivo at 2.5 mg/kg is 49.4%.
As to `O=c1[nH]ccn1CC(F)c1ccc(OC(F)F)c(OCC2CC2)c1` (racemic) [Compound 20, (±)-1-[2-[3-(cyclopropylmethoxy)-4-(difluoromethoxy)phenyl-2-fluoroethyl]-1,3-dihydro-2H-imidazol-2-one], the “% inhibition” value in experiment [2] (setting [4]) came to 94.4%.
With `COc1ccc(C(C)Cn2cc[nH]c2=O)cc1OC1CCCC1` (stereo not shown) [Compound 6, (A)-1-[2-[3-(cyclopentyloxy)-4-methoxy-phenyl]propyl]-1,3-dihydro-2H-imidazol-2-one], the IC50 in experiment [1] is 4.1 nM. Moreover, in experiment [2] (setting [5]), the “% inhibition” value worked out at 85.1%.
In the same order, the values of `COc1ccc(C(C)Cn2cc[nH]c2=O)cc1OC1CCCC1` (stereo not shown) [Compound 7, (B)-1-[2-[3-(cyclopentyloxy)-4-methoxyphenyl]propyl]-1,3-dihydro-2H-imidazol-2-one] are 43 nM and 67.0%.
Take `COc1ccc(C(C)Cn2cc[nH]c2=O)cc1OCC1CC1` (stereo not shown) [Compound 22, (A)-1-[2-[3-(cyclopropylmethoxy)-4-methoxyphenyl]propyl]-1,3-dihydro-2H-imidazol-2-one]: the IC50 in experiment [1] was 45 nM. Also, in experiment [2] (setting [3]), the inhibition in vivo at 5 mg/kg was 83.5%.
On to `COc1ccc(C(C)Cn2cc[nH]c2=O)cc1OCC1CC1` (stereo not shown) [Compound 23, (B)-1-[2-[3-(cyclopropylmethoxy)-4-methoxyphenyl]propyl]-1,3-dihydro-2H-imidazol-2-one], for which the “% inhibition” value in experiment [2] (setting [3]) stood at 72.1%.
On to `COc1ccc(C(C)Cn2cc[nH]c2=O)cc1OC1CCOC1` (stereo not shown) [Compound 29], for which the concentration for half-maximal inhibition (IC50) in experiment [1] was 240 nM. Also, the inhibition in vivo at 2.5 mg/kg in experiment [2] (setting [4]) was found to be 90.7%.
Take `COc1ccc(C(C)Cn2cc[nH]c2=O)cc1OCC1CCCC1` (stereo not shown) [Compound 32]: the IC50 in experiment [1] was 140 nM. Also, the inhibition in vivo at 5 mg/kg in experiment [2] (setting [3]) was 76.2%.
In the same order, the values of `COc1ccc(C(C)Cn2cc[nH]c2=O)cc1OCC1CCCO1` (stereo not shown) [Compound 33] are 2300 nM and 65.8%.
In the same order, the values of `CC(Cn1cc[nH]c1=O)c1ccc(OC(F)F)c(OCc2ccccc2)c1` (stereo not shown) [Compound 34] are 190 nM and 31.1%.
In the same order, the values of `COc1ccc(CCn2cc[nH]c2=O)cc1OC1CCOC1` (stereo not shown) [Compound 35] are 180 nM and 90.1%.
On to `CC(Cn1ccnc1O)c1ccc(OC(F)F)c(OC2CCCC2)c1` (stereo not shown) [Compound 37], for which the half-maximal inhibitory concentration (IC50) in experiment [1] was 0.7 nM. Besides, the inhibition in vivo at 5 mg/kg in experiment [2] (setting [3]) stood at 75.7%.
In the same order, the values of `CC(Cn1cc[nH]c1=O)c1ccc(OC(F)F)c(OC(F)F)c1` (stereo not shown) [Compound 38] are 20 nM and 76.6%.
In the same order, the values of `COc1ccc(C(C)Cn2cc[nH]c2=O)cc1OC` (stereo not shown) [Compound 76, 1,3-dihydro-1-[2-(3,4-dimethoxyphenyl)propyl]-2H-imidazol-2-one] are 150 nM and 69%.
In the same order, the values of `COc1ccc(C(C)Cn2c(C)c[nH]c2=O)cc1OC` (stereo not shown) [Compound 77, 1,3-dihydro-1-[2-(3,4-dimethoxyphenyl)propyl]-5-methyl-2H-imidazol-2-one] are 7300 nM and 35.8%.
For `COc1ccc(CCN2CCNC2=O)cc1OC` [Compound 78, 1-[2-(3,4-dimethoxyphenyl)ethyl]-1,3,4,5-tetrahydro-2H-imidazol-2-one], the IC50 in experiment [1] was 9000 nM. The inhibition in vivo at 5 mg/kg in experiment [2] (setting [3]) came to 31.3%.
For the compound `COc1ccc(CCn2cc[nH]c2=O)cc1OC` [Compound 79, 1,3-dihydro-1-[2-(3,4-dimethoxyphenyl)ethyl]-2H-imidazol-2-one], the 50% inhibitory concentration (IC50) in experiment [1] was 770 nM. In experiment [2] (setting [3]), the inhibition in vivo at 5 mg/kg was determined as 61.6%.
Turning to `COc1cc(Br)c(CCn2cc[nH]c2=O)cc1OC` [Compound 81, 1,3-dihydro-2-[2-(2-bromo-4,5-dimethoxyphenyl)ethyl]-2H-imidazol-2-one], the “% inhibition” value in experiment [2] (setting [3]) is recorded as 34.1%.
Turning to `COc1ccc(Cn2cc[nH]c2=O)cc1OC` [Compound 84, 1,3-dihydro-1-[(3,4-dimethoxyphenyl)methyl]-2H-imidazol-2-one], the inhibition in vivo at 5 mg/kg in experiment [2] (setting [3]) was found to be 46.5%.
Same read-out and setting: next, `COc1ccc(CCCn2cc[nH]c2=O)cc1OC` [Compound 85, 1,3-dihydro-1-[3-(3,4-dimethoxyphenyl)propyl]-2H-imidazol-2-one]: 31.6%.
